# Active and inactive are the calls of the source. The rule behind the calls is not given here.
# How the values were obtained:
# Jurkat = assay: Cytotoxicity against human Jurkat cells at 20 ug/ml; type: functional, cell-based
# KB = assay: Cytotoxicity against human KB cells; type: functional, cell-based
SMILES,Activity (Jurkat),IC50 (KB) [µg/mL]
CC[C@H]1C[C@H]([C@@H](C)C2[C@@H](O)C[C@H]3C4=CC[C@H]5C[C@@H](O[C@@H]6O[C@H](CO)[C@@H](O)[C@H](O)[C@H]6O[C@@H]6O[C@H](CO)[C@@H](O)[C@H](O)[C@H]6O)CC[C@]5(C)[C@H]4CC[C@]23C)O[C@]1(C)CO[C@@H]1O[C@H](CO)[C@@H](O)[C@H](O)[C@H]1O[C@@H]1O[C@H](CO)[C@@H](O)[C@H](O)[C@H]1O (stereo partly specified),inactive,
CC[C@H]1[C@H](O)[C@H]([C@@H](C)[C@@]2(O)[C@@H](O)C[C@H]3C4=CC[C@H]5C[C@@H](O[C@@H]6O[C@H](COC(C)=O)[C@@H](O)[C@H](O)[C@H]6O)CC[C@]5(C)[C@H]4CC[C@@]32C)O[C@]1(C)COC(C)=O,inactive,
CC[C@H]1[C@H](O)[C@H]([C@@H](CO)[C@@]2(O)[C@@H](O)C[C@H]3C4=CC[C@H]5C[C@@H](O)CC[C@]5(C)[C@H]4CC[C@@]32C)O[C@]1(C)CO [AJUGASALICIGENIN],inactive,1
CC[C@H]1[C@H](O)[C@H]([C@@H](CO)[C@@]2(O)[C@@H](O)C[C@H]3C4=CC[C@H]5C[C@@H](O[C@@H]6O[C@H](CO)[C@@H](O)[C@H](O)[C@H]6O)CC[C@]5(C)[C@H]4CC[C@@]32C)O[C@]1(C)CO [AJUGASALICIOSIDE F],inactive,13
